Measurements taken from a melting point compilation (Tetko et al.; mined from patent text by program, amines drawn as free bases though some values may be those of a salt).

SMILES | melting point [°C]
COc1ccc(-c2csc(Nc3ccccc3C(F)(F)F)n2)cc1OC | 188
CCCC(=O)NCCc1ccc(S(=O)(=O)N2CCN(C3CCCCC3)C2=N)s1 | 121 to 125
Cc1ccc(-c2ccccc2C(=O)O)cc1C(=O)NCC12CC3CC(CC(C3)C1)C2 | 85 to 92
CC(C)c1nc(COC2=CCCCC2)n(C)c1Sc1cc(Cl)cc(Cl)c1 | 69 to 71
Cc1c(-c2nnn[nH]2)oc2c(c1=O)CS(=O)(=O)c1ccccc1-2 | 268 to 270
O=C(O)c1ccc(C(=O)NOCCC23CC4CC(CC(C4)C2)C3)cc1 | 197 to 200
CCOC(=O)C1=C(N)NC(C)=CC1c1ccc(OC)cc1 (stereo not drawn) | 160 to 161
C=CCN1Cc2nc3c(cnn3CCCC#CC)c(N)c2C1=O | 138 to 140
CCC12CCC(=O)C=C1c1c(cc(OCC(=O)O)c(Cl)c1Cl)C2 (stereo not drawn) | 237 to 238
CCN(CC)C(=O)c1ccc2cc(-c3csc(N(C)S(=O)(=O)c4ccccc4)n3)c(=O)[nH]c2c1 | 200 to 202
O=C(NN=Cc1ccc2ccccc2n1)c1ccccc1[N+](=O)[O-] | 195 to 196
O=C(Cc1ccc(Cl)cc1)c1ccc(OC(F)F)cc1 | 74 to 76
CCCCC(Cc1ccc(OCCNC(=O)c2ccc(-c3cccc(O)c3)cc2)cc1)C(=O)O (stereo not drawn) | 98 to 100
Cc1nc2n(c(=O)c1CCN1CCC(c3c[nH]c4ccccc34)CC1)CCCS2 | 227
Nc1ccc(C(c2ccccc2)c2ccccc2)nc1 | 130 to 134
COc1ccc(CC(=O)NC(NC(Cc2cccnc2C)=NC#N)C(C)(C)C)cc1OC (stereo not drawn) | 164 to 165
O=c1nc2ccccc2c2cc(CO)[nH]n12 | 225 to 230
COc1ccc(C=C2SCCS2)cc1OC | 74 to 75
CC(C)COc1ccc(C(=O)N/C(=C\c2ccc(C(C)C)cc2)C(=O)NCCO)cc1 | 178 to 180
CN(C)c1ccc(/C=C/c2ccc(F)cc2)cc1 | 197 to 198
CC(C)n1nc(-c2cnc(N)nc2-c2ccccc2Br)ccc1=O | 203 to 205
Cc1ccc(C(N)=S)c(N)c1 | 172 to 174
CN(Cc1ccco1)Cn1cc(C#N)c(-c2cccc(Cl)c2Cl)c1 | 79 to 80
C=C(C)C(=O)OCCCCCCS(=O)(=O)c1ccc(O)c(C)c1 | 84 to 85
O=C(C(=O)c1cccc(Br)c1)c1ccncc1 | 88 to 90
CC(C)(/C=C\F)C(=O)Nc1ccc(Br)cc1 | 87 to 90

SMILES | melting point [°C]
CCCCCCCCOC(=O)/C(C#N)=C/C=C/N(C)C | 80 to 81
C#CCON=C(C(=O)OC)c1nsc(NC(=O)OC(C)(C)C)n1 | 72 to 75
O=C(Cl)c1c(Cl)ccc2c1OCCO2 | 50
COC(=O)CC(C#N)(C(=O)OC)c1cccc2ccc(OC)cc12 (stereo not drawn) | 119 to 121
CCC=C1SC(=S)N(CC(=O)O)C1=O | 138 to 140
CSc1ccc(-c2c(Br)cnn2-c2ccc(F)cc2)cc1 | 85 to 87
Oc1cccc2c1CCCC2CN1CCCCC1 (stereo not drawn) | 129 to 131
Cc1ccc(S(=O)(=O)OCC2COc3ccc4[nH]c(=O)[nH]c4c3O2)cc1 (stereo not drawn) | 202 to 204
O=C1CCc2c(-c3ccc(F)cc3)sc(-c3ccncc3)c21 | 155 to 157
CC(=O)Oc1ccccc1NC(=O)CBr | 79 to 82
CC(C)Oc1c(-c2ccc(S(C)(=O)=O)cc2)cnn(-c2ccc(F)cc2)c1=O | 135 to 137
CC(C)C[C@H](NC(=O)[C@H](NC(=O)OCc1ccccc1)C(C)C)C(=O)O | 134 to 136
O=C(O)Cc1ccc2c(c1)sc1c(Cl)cccc12 | 226 to 228
O=C(c1ccc(OCC2CC2)c2oc3ccccc3c12)[NH+]([O-])c1ccncc1 (stereo not drawn) | 266 to 268
CCNC(=O)Nc1nc2cc(-c3cccnc3)cc(OCCN(C)C)n2n1 | 200 to 202
CCN(CC)CCNc1ccc(CO)c2sc3ccc(OC)cc3c(=O)c12 | 103 to 105
N#Cc1cccc(OS(N)(=O)=O)c1 | 101 to 104
Cc1nn(CC(F)COCc2ccccc2)c(-c2ccc(F)cc2)c1-c1ccc2c(c1)NC(=O)CO2 (stereo not drawn) | 138 to 140
Clc1ccc2oc(-c3ccccc3)cc2c1 | 140 to 143
CCOC(=O)C(C(=O)C(C)C)C(CC(=O)C(C)(C)C)c1ccc(F)cc1 (stereo not drawn) | 80 to 89
N#Cc1c(Br)c(Br)n(C(=O)Oc2ccccc2)c1Br | 128 to 129
Cc1ccnc(N2CCN(CCc3c(C)n4c5c(cc(O)cc35)CCC4)CC2)c1 | 110
O=C(Nc1ccc(F)cc1F)c1cc(-c2ccc(F)cc2F)ccc1O | 233 to 234
Cc1cccc(N2CC(=O)N(c3ccc(S(N)(=O)=O)cc3Cl)C2)c1 | 198 to 202
COc1ccc(CN(C)CCc2ccc(NC(=O)c3cccc4c(=O)c5cccc(C)c5[nH]c34)c(C)c2)cc1OC | 160 to 161
Cc1nnc(CNC(=O)CN(C)C)n1-c1ccc(Cl)cc1C(=O)c1ccccc1 | 176 to 178

SMILES | melting point [°C]
CCOC(=O)c1c(C(C)C)c[nH]c1C | 67 to 68.5
O=C(O)CCc1cnoc1-c1ccc(Cl)s1 | 138 to 139
CCOC(=O)C(=Cc1ccccc1)S(=O)(=O)NC(=O)Nc1nc(OC)cc(OC)n1 | 140 to 143
COCCNC(=O)c1ccc(C(=O)N2CCN(c3ncccc3NC(C)C)CC2)nc1 | 122 to 124
Nc1nc(F)cc(CF)n1 | 189 to 190
Clc1ccc(-c2ccc(-c3ccccc3)s2)s1 | 128 to 132
Cn1cnc(COc2nn3c(-c4cc(CO)on4)nnc3c3ccccc23)n1 | 275 to 276
CCc1noc(-c2cc3c(-c4cccs4)nccc3[nH]c2=O)n1 | 265 to 268
CCCCCCCCCCCCCCCCCCc1c(C)[nH]c(C(=O)OCC)c1C | 76 to 78
O=C1c2ccccc2C(=O)c2c1c(Oc1ccc(CCCO)cc1)c1ccc(Sc3ccccc3)cc1c2Oc1ccc(CCCO)cc1 | 140 to 148
O=C(c1ccccc1)c1cccc(NC(=O)c2ccn3c2CSC3c2cccnc2)c1 (single isomer, unassigned; (+)) | 109
CCCc1c2occc(=O)c2cc2c(=O)c(-c3ccc(C(=O)O)cc3)c(C(=O)O)oc12 | 250
Cc1ccc(-c2nc(Cl)cc(-c3ccccc3)n2)cc1 | 86 to 87
Cc1oc2ccccc2c(=O)c1C(=O)O | 120 to 135
Nc1csc(-c2cc3c(Oc4ccc(Cl)cc4)cncc3s2)n1 | 168 to 170
N#Cc1ccc2c(c1)CC[C@@H](c1ccc(F)cc1)[C@H]2Cn1cncn1 (relative stereo) | 149
N#Cc1cn(CCl)cc1-c1ccccc1Cl | 97 to 99
CCCc1c(OCCCCCOc2ccc(C(=O)Cc3ccccc3C(=O)O)cc2CCC(=O)O)ccc2c1OCCC2=O | 178 to 182
CCOC(=O)Nc1cc(OC2CCCC2)c(Cl)cc1F | 92.8 to 97.8
CN1N=C(c2ccccc2)C(C)(C)NC1=O | 128 to 130
ClC(Cl)=CCOc1cc(Cl)c(OCc2ccncc2)c(Cl)c1 | 74
Clc1cnc(N2CCNCC2)c(Cl)n1 | 89 to 97
CC(C)C1NS(=O)(=O)N(CCl)C1=O (stereo not drawn) | 71 to 72
COc1ccc(NC(=O)Nc2nc3nc(NCCCN4CCN(C)CC4)ncc3cc2-c2c(Cl)cccc2Cl)cc1 | 93.5 to 100
COc1ccc(Nc2c(C#N)cnc3cc(OC)c(OC)cc23)cc1OC | 230 to 240
O=C1CC(=O)C(CCCCCCCO)C1=O (stereo not drawn) | 121 to 124

SMILES | melting point [°C]
O=c1[nH]c2scc(C3CC3)c2[nH]c1=O | > 250
CCOC(=O)N(C)CC1CN(c2c(F)cc(C(=O)O)c(F)c2F)CCO1 (stereo not drawn) | 170 to 172
CCOC(=O)C1=C(C)NC(c2cscn2)=NC1c1cccc(C)c1 (stereo not drawn) | 133 to 134
CC(=O)c1c(C)c(C)c(C(C)=O)c2c1C(=O)c1ccccc1C2=O | 222 to 224
CC(=O)OCC1OC(CCOS(C)(=O)=S)C(OC(C)=O)C(OC(C)=O)C1OC(C)=O (stereo not drawn) | 115 to 116
c1ccc(C(c2ccccc2)N2CCN(CCCSc3ccc4nncn4n3)CC2)cc1 | 79 to 80
O=C(OCC(=O)c1ccc(C(F)(F)F)cc1)Oc1ccccc1 | 134 to 135
OC(c1ccccc1)c1cc(Cl)ccc1CNC(=S)NCCc1ccccc1 (stereo not drawn) | 97
CS(=O)c1ncc(Cl)cn1 (stereo not drawn) | 48
OCC1OC(n2cnc3c(NCC4(c5cccs5)CCC4)ncnc32)C(O)C1O (stereo not drawn) | 84 to 92
CCOC(=O)Nc1cc([N+](=O)[O-])cc(CC)c1C(=O)O | 121 to 123
C#CCOc1ccc(/C=C/c2nc3ccccc3c(=O)o2)cc1OC | 177 to 178
CN(C(=O)CN(O)C(N)=O)c1cccc(OCc2ccccc2)c1 | 162 to 163
COc1ccc(CNC(=O)c2cn3c(=O)n(Cc4ccc(C(=O)O)cc4)c(=O)c(C)c3s2)cc1 | > 210
CSCc1c(N)c(C#N)cc(F)c1F | 109 to 110
N#Cc1ccc(C=CC(=O)N2CCc3c([nH]c4ccccc34)C2c2ccc3c(c2)OCO3)cc1 (stereo not drawn) | 167
O=c1oc(-c2cccc(Cl)c2)cc(O)c1SCCCCc1ccccc1 | 123 to 124
COc1ccc(-c2ccccc2-c2ccc(S(N)(=O)=O)cc2)cc1Cl | 180
CC(=O)N1CCC2(CC1)CN=C(c1cc3cccc(N(C)S(=O)(=O)c4cccs4)c3[nH]1)S2 | 216 to 218
CC(C)S(=O)(=O)Oc1cn(C)c2cc(F)ccc2c1=O | 130 to 133
COc1ccc(-c2nc(-c3ccc(Br)cc3)sc2-c2ccc(OC)cc2)cc1 | 155 to 157
CCOC(=O)C(Cc1cscn1)NC(C)=O (racemic) | 58 to 62
CCNc1nc(C)cc(O)n1 | 176
CCc1oc2ccccc2c1C(=O)N(C)Cc1ccc2cc(O)ccc2c1 | 80 to 90
CC(=O)N1CCN(CCCOc2ccc(NC(=O)c3cc(F)cc(N4CCCCC4)c3)c3ccccc23)CC1 | 210 to 211
